From PubChem BioAssay AID328 (DTP/NCI, 2004)
Several values for one entry are separate records, joined by “and”; a condition that tells them apart may be missing. Equal values may be shown once. Toxic doses and inconclusive results are not listed. Rule for the calls: active = survival T/C of 150% or more; inactive = T/C below 125% in these data.

Tested on: BDF1 mice, P388 leukemia ip, median survival T/C
Assay: NCI In Vivo Anticancer Drug Screen. Data for tumor model P388 Leukemia (intraperitoneal) in B6D2F1 (BDF1) mice
Settings: endpoint: median survival time, higher = longer survival
How it was run: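 Survival ratio, drug arm over vehicle arm, in mice with a transplanted tumour.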

[1] = dose: 100.0 mg/kg/injection, schedule: Q01DX009 (ip), vehicle: saline
[2] = dose: 200.0 mg/kg/injection, schedule: Q01DX009 (ip), vehicle: saline
[3] = dose: 100.0 mg/kg/injection, schedule: Q01DX001 (ip), vehicle: Klucel (hydroxypropylcellulose) (HPC)
[4] = dose: 200.0 mg/kg/injection, schedule: Q01DX001 (ip), vehicle: Klucel (hydroxypropylcellulose) (HPC)
[5] = dose: 400.0 mg/kg/injection, schedule: Q01DX001 (ip), vehicle: Klucel (hydroxypropylcellulose) (HPC)
[6] = dose: 100.0 mg/kg/injection, schedule: Q01DX009 (ip), vehicle: Klucel (hydroxypropylcellulose) (HPC)
[7] = dose: 200.0 mg/kg/injection, schedule: Q01DX009 (ip), vehicle: Klucel (hydroxypropylcellulose) (HPC)
[8] = dose: 400.0 mg/kg/injection, schedule: Q01DX009 (ip), vehicle: Klucel (hydroxypropylcellulose) (HPC)

Measured: T/C

Cc1ccc(S(=O)(=O)OCCN(CCOS(=O)(=O)c2ccc(C)cc2)c2ccc(F)cc2)cc1
active: dose: 29.3 mg/kg/injection, schedule: Q01DX009 (ip), vehicle: other 190 % of control | dose: 44.0 mg/kg/injection, schedule: Q01DX009 (ip), vehicle: other 213 % of control | dose: 66.0 mg/kg/injection, schedule: Q01DX009 (ip), vehicle: other 245 % of control and 272 % of control | dose: 200.0 mg/kg/injection, schedule: Q04DX003 (ip), vehicle: other 154 % of control | dose: 400.0 mg/kg/injection, schedule: Q04DX003 (ip), vehicle: other 150 % of control
inactive: dose: 66.0 mg/kg/injection, schedule: Q04DX003 (ip), vehicle: saline sonified 105 % of control | dose: 100.0 mg/kg/injection, schedule: Q04DX003 (ip), vehicle: saline sonified 100 % of control | dose: 150.0 mg/kg/injection, schedule: Q04DX003 (ip), vehicle: saline sonified 105 % of control | dose: 200.0 mg/kg/injection, schedule: Q01DX009 (ip), vehicle: other 113 % of control

c1ccc(-n2nc3c(c2-c2ccc(OCCN4CCCC4)cc2)CCCc2ccccc2-3)cc1
inactive: dose: 25.0 mg/kg/injection, schedule: Q04DX003 (ip), vehicle: saline with Tween-80 120 % of control | dose: 50.0 mg/kg/injection, schedule: Q04DX003 (ip), vehicle: saline with Tween-80 120 % of control | dose: 100.0 mg/kg/injection, schedule: Q04DX003 (ip), vehicle: saline with Tween-80 100 % of control

COc1cc(NCc2ccc3nc(N)nc(N)c3c2C)cc(OC)c1OC
active: dose: 5.0 mg/kg/injection, schedule: Q01DX009 (ip), vehicle: sodium bicarbonate 154 % of control | dose: 10.0 mg/kg/injection, schedule: Q01DX009 (ip), vehicle: sodium bicarbonate 177 % of control | dose: 20.0 mg/kg/injection, schedule: Q01DX009 (ip), vehicle: saline with Tween-80 255 % of control | dose: 20.0 mg/kg/injection, schedule: Q01DX009 (ip), vehicle: sodium bicarbonate 227 % of control | dose: 30.0 mg/kg/injection, schedule: Q01DX009 (ip), vehicle: saline with Tween-80 398 % of control | dose: 40.0 mg/kg/injection, schedule: Q01DX009 (ip), vehicle: sodium bicarbonate 243 % of control | dose: 50.0 mg/kg/injection, schedule: Q01DX009 (oral), vehicle: sodium bicarbonate 170 % of control
inactive: dose: 12.5 mg/kg/injection, schedule: Q01DX009 (oral), vehicle: sodium bicarbonate 113 % of control | dose: 44.0 mg/kg/injection, schedule: Q01DX009 (ip), vehicle: saline with Tween-80 97 % of control | dose: 67.0 mg/kg/injection, schedule: Q01DX009 (ip), vehicle: saline with Tween-80 95 % of control | dose: 100.0 mg/kg/injection, schedule: Q01DX009 (oral), vehicle: sodium bicarbonate 89 % of control

O=[N+]([O-])CC(O)C(O)C(O)C(O)CO (configuration not stated)
inactive: [1] 95 % of control | dose: 100.0 mg/kg/injection, schedule: Q04DX003 (ip), vehicle: saline 104 % of control | [2] 100 % of control | dose: 200.0 mg/kg/injection, schedule: Q04DX003 (ip), vehicle: saline 100 % of control | dose: 400.0 mg/kg/injection, schedule: Q01DX009 (ip), vehicle: saline 100 % of control | dose: 400.0 mg/kg/injection, schedule: Q04DX003 (ip), vehicle: saline 104 % of control

CN(C)P(=O)(N(C)C)N(C)CC[N+](C)(C)C
inactive: dose: 50.0 mg/kg/injection, schedule: Q01DX009 (ip), vehicle: saline 103 % of control | [1] 101 % of control | [2] 100 % of control

CN(CCOc1ccccc1O)CCOc1ccccc1O
inactive: [3] 120 % of control | [4] 110 % of control | [5] 105 % of control

CCCC(=O)c1c(C)cc(C)cc1C
inactive: dose: 100.0 mg/kg/injection, schedule: Q04DX003 (ip), vehicle: Klucel (hydroxypropylcellulose) (HPC) 110 % of control | dose: 200.0 mg/kg/injection, schedule: Q04DX003 (ip), vehicle: Klucel (hydroxypropylcellulose) (HPC) 110 % of control | dose: 400.0 mg/kg/injection, schedule: Q04DX003 (ip), vehicle: Klucel (hydroxypropylcellulose) (HPC) 120 % of control

CCOc1nc(OCC)nc(-c2cccn2-c2ccccc2)n1
inactive: [3] 100 % of control | [6] 86 % of control | [4] 104 % of control | [7] 100 % of control | [5] 90 % of control | [8] 104 % of control

O=c1ccc2cc(Cl)ccc2[nH]1
inactive: dose: 50.0 mg/kg/injection, schedule: Q01DX001 (ip), vehicle: saline with Tween-80 105 % of control | dose: 100.0 mg/kg/injection, schedule: Q01DX001 (ip), vehicle: saline with Tween-80 103 % of control

CCC/C=C/C=C/C1CC(O)C(O)C(=O)C1C=O (configuration not stated)
inactive: dose: 12.5 mg/kg/injection, schedule: Q01DX009 (ip), vehicle: saline with Tween-80 108 % of control | dose: 25.0 mg/kg/injection, schedule: Q01DX009 (ip), vehicle: saline with Tween-80 100 % of control | dose: 50.0 mg/kg/injection, schedule: Q01DX009 (ip), vehicle: saline with Tween-80 101 % of control

Cc1ccc(S(=O)(=O)NC(c2ccccc2)(c2ccccc2)c2ccccc2)cc1
inactive: [6] 113 % of control | [7] 109 % of control | [8] 90 % of control
